In patent US6689609B1, “Enhancing germination of plant somatic embryos by priming” (Cellfor Inc., priority 1999, dated 2004) one finds Germination % and Rooting % data, which are given here for 1 molecule.

The subject of assay [1] is interior spruce somatic embryos. The assay can be described thus: Plant growth regulators added to nutripriming solutions: ex vitro germination and rooting of interior spruce somatic embryos. The class given is in vivo, Picea glauca (Moench) Voss x P. engelmannii Parry ex Engelm. From the text:
Mature somatic embryos of interior spruce (Picea glauca (Moench) Voss x P. engelmannii Parry ex Engelm.) genotypes 4-2809, 23-2672, and I-1026 were desiccated with the HRHT treatment. Genotype I-1026 was further desiccated at 85% RH for three days, then stored at −20C. Prior to nutripriming, genotype I-1026 was imbibed with a matripriming step which consisted of placing the desiccated embryos onto a screen, and then placing the screen on the surface of an agar substrate gelled with 3% phytogel for 18 hrs. After this imbibition step was completed for genotype I-1026, all three genotypes were nutriprimed for 84 hr in 3% w/v sucrose m24GMD nutripriming solutions amended with the plant growth regulators described in Table 8.1.
After the nutripriming step was completed, the nutriprimed somatic embryos were sown ex vitro into 400-cavity styrofoam miniplug trays filled with peat bound by a polymer (Grow-Tech Inc., San Bautista, Calif.). After sowing, the trays were placed into a non-sterile high-humidity (≧95% RH) germination chamber for one week. In both studies, immediately after the trays containing ex vitro sown nutriprimed embryos were placed into the non-sterile high-humidity germination chamber, they were misted with m24GMD solution containing 3% w/v sucrose until the surfaces of the non-sterile growing substrates were well-wetted, and subsequently at daily intervals for a period of 7 days. After the initial 7-day period in the non-sterile high-humidity germination environment, the trays were moved to a non-sterile misting chamber (RH ranged between 75-90%) for two more weeks of growth under an 18-hour photoperiod of […] PAR with day-night temperatures of 18-23° C. Daily applications of the m24GMD nutrient solution containing 3% w/v sucrose were misted onto the germinants through to the end of the two-week period in the misting chamber. Aseptic techniques or conditions were not used for application of the nutrient solutions, or for the germination and growing environments during the 3-week culture period.
At the end of the three-week germination period, all germinated embryos and seedlings were counted and examined for root initiation. Germination and rooting percentages were calculated based on total number of embryos sown in each replicate. The rooting percentage measures the plant conversion rate since the survived germinants can have perfectly elongated and formed shoot, but without root initiation.

Assay [2] shares this test system. Nature of the assay: Plant growth regulators added to horticultural growing substrate after sowing: ex vitro germination and rooting of nutriprimed interior spruce somatic embryos. Type of assay: in vivo, Picea glauca (Moench) Voss x P. engelmannii Parry ex Engelm. Conditions: primed. From the text:
The second study assessing the effects of plant growth regulators on germination performance of nutriprimed somatic embryos involved additions of plant growth regulators to the horticultural growing substrates after the nutriprimed somatic embryos were sown ex vitro. In this study, somatic embryos from interior spruce genotypes 4-2809, 23-2672, and I-1026 were desiccated and stored as described for the first growth regulator study. Prior to nutripriming, genotype I-1026 was imbibed with a matripriming step which consisted of placing the desiccated embryos onto a screen, and then placing the screen on the surface of an agar substrate gelled with 3% phytogel foe 18 hrs. After this imbibition step was completed for genotype I-1026, all three genotypes were nutriprimed for 84 hr in 3% w/v sucrose m24GMD nutripriming solutions and then sown ex vitro into 400-cavity styrofoam miniplug trays filled with peat bound by a polymer (Grow-Tech Inc., San Bautista, Calif.). After sowing was completed, the nutriprimed embryo received exogenous applications of one of the treatments described in Table 8.3.
After the exogenous application of the plant growth regulator treatments, the blocks were placed onto a non-sterile high-humidity (≧95% RH) germination chamber for one week. Immediately after the trays containing ex vitro sown nutriprimed embryos were placed into the non-sterile high-humidity germination chamber, they were misted with m24GMD solution containing 3% w/v sucrose until the surfaces of the non-sterile growing substrates were well-wetted, and then at daily intervals for a period of 7 days. After the initial 7-day period in the non-sterile high-humidity germination environment, the trays were moved to a non-sterile misting chamber (RH ranged between 75-90%) for two more weeks of growth under an 18-hour photoperiod of […] PAR with day-night temperatures of 18-23° C. Daily applications of the m24GMD nutrient solution containing 3% w/v sucrose were misted onto the germinants through to the end of the two-week period in the misting chamber. Aseptic techniques or conditions were not used for application of the nutrient solutions, nor for the germination and growing environments during the 3-week culture period.
At the end of the three-week germination period, all survived germinants were counted and examined for root initiation. Germination and rooting percentages were calculated based on total number of embryos sown in each replicate.

Where [3] appears, read: genotype 4-2809, HRHT, IBA 0.1 μM in priming solution.
[4] abbreviates: genotype 4-2809, HRHT, priming solution with no regulator or IBA 0.05 μM alone, + BA 0.01 μM, + BA 0.01 μM + GA4/7 0.01 μM, or + GA4/7 0.05 μM.
Setting [5] is: genotype 23-2672, HRHT, IBA 0.1 μM in priming solution.
[6] abbreviates: genotype 23-2672, HRHT, priming solution with no regulator or IBA 0.05 μM alone, + BA 0.01 μM, + BA 0.01 μM + GA4/7 0.01 μM, or + GA4/7 0.05 μM.
[7] abbreviates: genotype I-1026, 85% & frozen, IBA 0.1 μM in priming solution.
Setting [8] is: genotype I-1026, 85% & frozen, priming solution with no regulator or IBA 0.05 μM alone, + BA 0.01 μM, + BA 0.01 μM + GA4/7 0.01 μM, or + GA4/7 0.05 μM.
Setting [9] is: genotype 4-2809, HRHT, IBA 0.2 μM.
[10] abbreviates: genotype 4-2809, HRHT, substrate given no regulator or IBA 0.1 μM alone, + BA 0.02 μM, + BA 0.02 μM + GA4/7 0.2 μM (so in the source), or + GA4/7 0.1 μM.
[11] abbreviates: genotype 23-2672, HRHT, IBA 0.2 μM.
Where [12] appears, read: genotype 23-2672, HRHT, substrate given no regulator or IBA 0.1 μM alone, + BA 0.02 μM, + BA 0.02 μM + GA4/7 0.2 μM (so in the source), or + GA4/7 0.1 μM.
Setting [13] is: genotype I-1026, 85% & frozen, IBA 0.2 μM.
Setting [14] is: genotype I-1026, 85% & frozen, substrate given no regulator or IBA 0.1 μM alone, + BA 0.02 μM, + BA 0.02 μM + GA4/7 0.2 μM (so in the source), or + GA4/7 0.1 μM.

As to `O=C(O)CCCc1c[nH]c2ccccc12` [IBA, indole-butyric-acid], the Germination % in assay [1] (setting [3]) came out at 68.8 ± 5.2%; in assay [1] (setting [4]), 92.5 ± 6.0%; in assay [1] (setting [5]), 82.5 ± 9.7%; in assay [1] (setting [6]) it was 90.0 ± 3.5%; in assay [1] (setting [7]) it was 88.8 ± 6.6%; in assay [1] (setting [8]), 93.8 ± 2.4%. Further, the Germination % in assay [2] (setting [9]) is on record as 97.5 ± 1.4%; in assay [2] (setting [10]) it was 92.5 ± 7.5%; in assay [2] (setting [11]), 72.5 ± 10.9%; in assay [2] (setting [12]), 72.5 ± 11. %; in assay [2] (setting [13]), 80.0 ± 6.8%; in assay [2] (setting [14]), 91.3 ± 5.5%. Moreover, the Rooting % is 51.3 ± 4.3% in assay [1] (setting [3]); 82.5 ± 6.0% in assay [1] (setting [4]); 72.5 ± 6.3% in assay [1] (setting [5]); 71.3 ± 6.6% in assay [1] (setting [6]); 58.8 ± 5.9% in assay [1] (setting [7]); 66.3 ± 4.7% in assay [1] (setting [8]). The Rooting % in assay [2] (setting [9]) came to 78.8 ± 7.5%; in assay [2] (setting [10]), 75.0 ± 10.2%; in assay [2] (setting [11]), 67.5 ± 10.1%; in assay [2] (setting [12]), 61.3 ± 13.4%; in assay [2] (setting [13]) it was 65.0 ± 5.4%; in assay [2] (setting [14]), 66.3 ± 3.7%.
